{"source": "the OPERA property sets (Mansouri et al. 2018)", "data": [{"values": [{"smiles": "Cc1cccc(Cl)c1C(N)=O", "logP": 0.89}, {"smiles": "CC(=O)Nc1ccc(Br)c(Cl)c1C", "logP": 2.69}, {"smiles": "C=CCOc1cc(NC(C)=O)c(F)cc1Cl", "logP": 2.76}, {"smiles": "CC(=O)Nc1cc(C)c(Br)c(C)c1", "logP": 3.28}, {"smiles": "COc1cccc(OC)c1C", "logP": 2.87}, {"smiles": "NC(=O)c1c(Cl)cccc1Br", "logP": 1}, {"smiles": "N#Cc1cccc(C(N)=O)c1", "logP": 0.52}, {"smiles": "CC(=O)Nc1cc(F)cc(C(F)(F)F)c1Cl", "logP": 2.86}, {"smiles": "COc1ccccc1C(=O)N(C)C", "logP": 0.71}, {"smiles": "CC(C)c1ccccc1C(N)=O", "logP": 1.39}, {"smiles": "CCc1cccc(CC)c1NC(C)=O", "logP": 1.85}, {"smiles": "CC(=O)Nc1cccc(F)c1", "logP": 1.65}, {"smiles": "CC(=O)Nc1cccc(Cl)c1Cl", "logP": 2.09}, {"smiles": "CC(=O)Nc1ccc(C)cc1[N+](=O)[O-]", "logP": 1.49}, {"smiles": "COc1ccccc1F", "logP": 2.14}, {"smiles": "CC(=O)Nc1cc(C)cc(C)c1", "logP": 2.17}, {"smiles": "NC(=O)c1c(Cl)cccc1[N+](=O)[O-]", "logP": 0.12}, {"smiles": "CC(=O)Nc1c([N+](=O)[O-])cccc1[N+](=O)[O-]", "logP": 0.56}, {"smiles": "CC(=O)Nc1cc(Cl)c(F)c(Cl)c1F", "logP": 2.9}, {"smiles": "NC(=O)c1c(Br)cccc1[N+](=O)[O-]", "logP": 0.28}, {"smiles": "CC(=O)Nc1cc(C(F)(F)F)c(F)cc1F", "logP": 2.34}, {"smiles": "CC(=O)Nc1cc(Cl)c(Cl)c(Cl)c1", "logP": 3.76}, {"smiles": "CC(=O)Nc1ccc(Cl)cc1[N+](=O)[O-]", "logP": 1.78}, {"smiles": "CC(=O)Nc1cc(C)c(O)cc1C", "logP": 0.6}, {"smiles": "CC(C)c1ccccc1[N+](=O)[O-]", "logP": 3.34}, {"smiles": "O=[N+]([O-])c1ccc(Cl)cc1[N+](=O)[O-]", "logP": 2.18}, {"smiles": "CC(=O)Nc1ccc(OC(F)(F)F)cc1", "logP": 2.62}, {"smiles": "CC(=O)Nc1cccc(Br)c1", "logP": 2.31}, {"smiles": "CCc1cc(NC(C)=O)ccc1Br", "logP": 3.33}, {"smiles": "CC(=O)Nc1ccc(C)c(C)c1", "logP": 2.1}, {"smiles": "NC(=O)c1c(F)cccc1F", "logP": 0.25}, {"smiles": "CC(=O)Nc1c(C)cc(C)cc1[N+](=O)[O-]", "logP": 1.18}, {"smiles": "CCCCc1ccc(NC(C)=O)c(Br)c1", "logP": 3.39}, {"smiles": "CC(=O)Nc1ccc(C)cc1", "logP": 1.7}, {"smiles": "COc1c(Cl)cccc1NC(C)=O", "logP": 1.68}, {"smiles": "COc1cccc(Cl)c1C(N)=O", "logP": 0.59}, {"smiles": "N#Cc1ccc(C(N)=O)cc1", "logP": 0.48}, {"smiles": "Cc1cccc(C)c1C(N)=O", "logP": 0.9}, {"smiles": "COc1ccc(OC)c(Cl)c1", "logP": 2.69}, {"smiles": "CC(=O)Nc1cc(C(F)(F)F)c(Cl)cc1F", "logP": 3.02}, {"smiles": "COc1c(C)cccc1NC(C)=O", "logP": 1.28}, {"smiles": "CC(=O)Nc1c(Br)cccc1Br", "logP": 1.53}, {"smiles": "CC(=O)Nc1ccc(Oc2ccccn2)cc1", "logP": 1.57}, {"smiles": "CC(=O)Nc1cccc(Cl)c1F", "logP": 1.83}, {"smiles": "CC(=O)Nc1cc(Cl)cc(C(F)(F)F)c1Cl", "logP": 3.27}, {"smiles": "CC(=O)Nc1c(C)cccc1[N+](=O)[O-]", "logP": 0.61}, {"smiles": "CC(=O)Nc1ccc(Cl)c(Cl)c1", "logP": 3}, {"smiles": "CC(=O)Nc1ccc(C)c(C)c1C", "logP": 1.76}, {"smiles": "CC(=O)Nc1ccc(Cl)c(C(F)(F)F)c1", "logP": 3.33}, {"smiles": "CC(=O)Nc1cccc(C)c1C", "logP": 1.35}, {"smiles": "COc1cccc(NC(C)=O)c1", "logP": 1.3}, {"smiles": "COc1ccccc1Br", "logP": 2.86}, {"smiles": "O=[N+]([O-])c1cc(C(F)(F)F)cc([N+](=O)[O-])c1Cl", "logP": 2.5}, {"smiles": "CC(=O)Nc1c(F)c(F)c(F)c(F)c1F", "logP": 1.7}, {"smiles": "CC(=O)Nc1ccc(Cl)c(Cl)c1Cl", "logP": 2.88}, {"smiles": "CC(=O)Nc1ccccc1Br", "logP": 1.34}, {"smiles": "COc1cccc(OC)c1", "logP": 2.21}, {"smiles": "CCc1cccc(C)c1NC(C)=O", "logP": 1.41}, {"smiles": "CCOc1ccc(C(N)=O)cc1", "logP": 1.3}, {"smiles": "CC(=O)Nc1c(C)cccc1Cl", "logP": 1.22}, {"smiles": "CCc1cccc(C(C)C)c1NC(C)=O", "logP": 2.1}, {"smiles": "CC(=O)Nc1ccc(Br)c(C)c1", "logP": 2.8}, {"smiles": "NC(=O)c1c(F)cccc1Cl", "logP": 0.49}, {"smiles": "CC(=O)Nc1ccc(Br)c(C)c1Cl", "logP": 2.73}, {"smiles": "CC(=O)Nc1cc(C)ccc1C", "logP": 1.47}, {"smiles": "CC(=O)Nc1c(C)cccc1C", "logP": 1.07}, {"smiles": "CC(=O)Nc1ccc(Cl)cc1C(F)(F)F", "logP": 1.98}, {"smiles": "CC(=O)Nc1cc(Cl)cc(C(F)(F)F)c1F", "logP": 3.15}]}]}
